Experimental data: patent US20030109537A1, “Methods and materials for treating bone conditions” (priority 2001, published 2003)

How the values were obtained:
[1] = tested on: osteoblasts and peritrabecular fibroblasts; assay: 3H-thymidine autoradiography; type: in vivo, rat; details: continuous PTH 1 week with continuous 3H-thymidine infusion, rats
Description: ^3H-thymidine autoradiography was performed to determine the role of cell proliferation in contributing to the increases in osteoblasts and fibroblasts following continuous administration of PTH. ^3H-thymidine was infused continuously for the entire 1-week duration of PTH treatment in order to label all proliferating cells. […] Thus, it seems that PTH-induced osteoblasts and fibroblasts originate by different cellular pathways.

[2] = tested on: genes for cytokines and their receptors; assay: cDNA microarray analysis of PTH-regulated genes in proximal tibial metaphysis; type: in vivo, rat; details: for genes regulated (of 8500 rat genes, Affymetrix): p<0.05
Description: Induction of parathyroid bone disease. Three month-old female Sprague-Dawley rats (Harlan Sprague-Dawley, Inc., Indianapolis, Ind.) were randomly divided into 3 groups, with 5 rats per group. In group 1 (pulsatile or intermittent PTH), each rat received 80 μg/kg/day human PTH (1-34) (hPTH) in vehicle (150 mM NaCl, 1 mM HCl and 2% heat-inactivated rat serum) by subcutaneous (s.c.) injection once daily for 7 days. In group 2 (vehicle), an osmotic pump (Alza Corp., Mountainview, Calif.) that delivered vehicle alone at a rate of 1 μl/hr for 7 days was implanted in each rat. In group 3 (continuous PTH), an osmotic pump that delivered 40 μg/kg/day hPTH at a rate of 1 μl/hr for 7 days was implanted in each rat. On day 8, all rats were anesthetized with ketamine (50 mg/kg): xylazine HCl (5 mg/kg) and sacrificed by decapitation. Both tibiae were removed from each rat. Right tibiae were fixed by immersion in 70% ethanol then processed for bone histology to verify the appearance of peritrabecular fibrosis. Left tibiae were frozen in liquid N2 and stored at −80° C. until processed for RNA isolation.
Isolation of RNA. Frozen proximal tibial metaphyses were individually homogenized in guanidine isothiocyanate using a Spex freezer mill (Industries, Inc., Edison, N.J.). Total RNA was extracted from the homogenate using a modified organic solvent method. See Chomczynski et al., Anal. Biochem., 162:156-159 (1987). Isolated RNA yields were determined spectrophotometrically at 260 nm using standard methods.
cDNA microarray analysis. cDNA probes were generated by reverse transcription (Superscript II, Life Technologies, Rockville, Md.) using 1 μg total RNA isolated from the proximal tibial metaphysis of rats in groups 1, 2, and 3. First-strand cDNA probes were primed by the addition of oligo dT and subsequently labeled with [α-^33P]dCTP (ICN Radiochemicals Costa Mesa, Calif.). The labeled probes then were purified by passage through a Sephadex G-50 DNA Grade Column (Amersham Pharmacia Biotech AB, Uppsala, Sweden). The purified probes were hybridized to a rat genefilter microarray containing 5531 genes (GF 300; Research Genetics, Huntsville, Ala.). according to the manufacturer's recommended protocol. A micro-array system from Affymetrix, which contains 8500 genes, also was used. After hybridization, the array was washed and wrapped with plastic wrap before placing in a phosphor imaging cassette containing a Cyclone Storage Phosphor Screen (Packard, Downers Groves, Ill.). After 24 hours, the screen was imaged and the resulting images analyzed using Pathways 2.01 software to compare the signal intensities of spots.
Candidate genes associated with peritrabecular fibrosis were identified with cDNA microarrays containing 5531 or 8500 genes as described in Example 1. Approximately 14% of the total genes measured were differentially expressed by at least 2.5-fold between pulsatile and continuous PTH-treated groups. […] Of the regulated genes, 158 were unique to intermittent administration of PTH and 759 to continuous administration of PTH. An additional 158 genes were common to both treatments.
The list of candidate genes was examined to determine if any of the genes encoded growth factors. More specifically, it was determined if the differentially expressed genes were growth factors produced on or near bone surfaces, were chemotactic to fibroblasts, were able to stimulate fibroblast proliferation, or could induce bone resorption. One of the candidate genes, PDGF, a known mitogenic and chemotactic factor for fibroblasts, met all these criteria.

[3] = continuous PTH, rat proximal tibial metaphysis, gene microarray
[4] = continuous administration of PTH
[5] = intermittent administration of PTH

total genes differentially expressed by at least […] between pulsatile and continuous PTH-treated groups ([2]; cDNA microarrays): Approximately 14% | BMP-1 gene expression, Fold Change [2, 3]: 1.3 fold | BMP-3 gene expression, Fold Change [2, 3]: 19 fold | BMP-6 gene expression, Fold Change [2, 3]: 1.6 fold | COX2 gene expression, Fold Change [2, 3]: 1.8 fold | FGF gene expression, Fold Change [2, 3]: 5.1 fold | FGF receptor-1 gene expression, Fold Change [2, 3]: 2.7 fold | IL-6 receptor gene expression, Fold Change [2, 3]: −1.2 fold | IL-12p40 gene expression, Fold Change [2, 3]: 1.3 fold | PGE2 receptor EP3 gene expression, Fold Change [2, 3]: 1.7 fold | PTH receptor gene expression, Fold Change [2, 3]: 3.8 fold | TGF-β1 gene expression, Fold Change [2, 3]: 1.5 fold | TGF-β3 gene expression, Fold Change [2, 3]: 1.9 fold | PDGF-A gene expression, Fold Change ([2]; continuous PTH, rat proximal tibial metaphysis, gene microarray, n = 5): 85 fold | number of regulated genes unique to the regimen [2, 4]: 759 | genes regulated (of 8500 rat genes, Affymetrix) [2, 4]: 10.4% | number of regulated genes unique to the regimen [2, 5]: 158 | genes regulated (of 8500 rat genes, Affymetrix) [2, 5]: 3.6% | number of regulated genes common to both treatments ([2]; intermittent and continuous PTH): 158
Substance: human PTH (1-34)
3H-thymidine labeling of PTH-induced osteoblasts [1]: unlabeled | 3H-thymidine labeling of most of the peritrabecular fibroblasts induced by PTH [1]: labeled
